Like-named read-outs stand apart in the source and are kept apart here.
Key:
[1] = test system: endothelial tube formation in co-cultures of ECFCs and ADSCs treated with VEGF; experiment: cells; assay type: cell-based, human
[2] = test system: nuclear β-catenin in C2C12 cells; experiment: cells; assay type: cell-based
INS-1E cells = experiment: cells; assay type: cell-based, rat
NCI-H716 cells = experiment: cells; assay type: cell-based, Human
HeLa cells = experiment: cells; assay type: cell-based; conditions: read-out: CellCycle G2/M
DLD-1 = experiment: cells; assay type: cell-based
SW480 = experiment: cells; assay type: cell-based
HCT116 = experiment: cells; assay type: cell-based
[3] = test system: HCT116 cells treated with a GSK3β inhibitor; experiment: cells; assay type: cell-based
Colo320 = experiment: cells; assay type: cell-based
HT-29 = experiment: cells; assay type: cell-based
RKO = experiment: cells; assay type: cell-based
SNU-C1 = experiment: cells; assay type: cell-based
hp70S6K1 (RPS6KB1) = molecular target: T1, hp70S6K1 (RPS6KB1) (Homo sapiens, UniProt P23443); experiment: Cerep LANCE kinase assay hp70S6K1 (S1 assay 31); assay type: biochemical; conditions: read-out: p70S6K1
T1 construct: purchased Cerep (LANCE kinase assay platform, contract assay)

hKDR = molecular target: T2, hKDR (Homo sapiens, UniProt P35968); experiment: Cerep LANCE kinase assay hKDR (S1 assay 32); assay type: biochemical; conditions: read-out: KDR
T2 construct: purchased Cerep (LANCE kinase assay platform, contract assay)

hJAK2 = molecular target: T3, hJAK2 (Homo sapiens, UniProt O60674); experiment: Cerep LANCE kinase assay hJAK2 (S1 assay 33); assay type: biochemical; conditions: read-out: JAK2
T3 construct: purchased Cerep (LANCE kinase assay platform, contract assay)

hGSK3b = molecular target: T4, hGSK3b (Homo sapiens, UniProt P49841); experiment: Cerep LANCE kinase assay hGSK3b (S1 assay 34); assay type: biochemical; conditions: read-out: GSK3b
T4 construct: purchased Cerep (LANCE kinase assay platform, contract assay)

hFLT3 = molecular target: T5, hFLT3 (Homo sapiens, UniProt P36888); experiment: Cerep LANCE kinase assay hFLT3 (S1 assay 35); assay type: biochemical; conditions: read-out: FLT3
T5 construct: purchased Cerep (LANCE kinase assay platform, contract assay)

[4] = Homo sapiens, read-out: Anti-Angiogenesis
[5] = Mus musculus, C2C12, read-out: Wnt Pathway
[6] = Rattus norvegicus, INS-1E, read-out: Insulin Secretion
[7] = Homo sapiens, NCI-H716, read-out: GLP 1 Secretion
[8] = Homo sapiens, DLD-1, read-out: Basal_Viability ATP DLD-1
[9] = Homo sapiens, SW480, read-out: Basal_Viability ATP SW480
[10] = Homo sapiens, HCT-116, read-out: Basal_Viability ATP HCT116
[11] = Homo sapiens, HCT-116, read-out: GSK3b inh pretreated_Viability ATP HCT116
[12] = Homo sapiens, COLO 320, read-out: Basal_Viability ATP Colo 320
[13] = Homo sapiens, HT-29, read-out: Basal_Viability ATP HT-29
[14] = Homo sapiens, RKO, read-out: Basal_Viability ATP RKO
[15] = Homo sapiens, SNU-C1, read-out: Basal_Viability ATP SNU-C1

T1 sequence (P23443 whole entry): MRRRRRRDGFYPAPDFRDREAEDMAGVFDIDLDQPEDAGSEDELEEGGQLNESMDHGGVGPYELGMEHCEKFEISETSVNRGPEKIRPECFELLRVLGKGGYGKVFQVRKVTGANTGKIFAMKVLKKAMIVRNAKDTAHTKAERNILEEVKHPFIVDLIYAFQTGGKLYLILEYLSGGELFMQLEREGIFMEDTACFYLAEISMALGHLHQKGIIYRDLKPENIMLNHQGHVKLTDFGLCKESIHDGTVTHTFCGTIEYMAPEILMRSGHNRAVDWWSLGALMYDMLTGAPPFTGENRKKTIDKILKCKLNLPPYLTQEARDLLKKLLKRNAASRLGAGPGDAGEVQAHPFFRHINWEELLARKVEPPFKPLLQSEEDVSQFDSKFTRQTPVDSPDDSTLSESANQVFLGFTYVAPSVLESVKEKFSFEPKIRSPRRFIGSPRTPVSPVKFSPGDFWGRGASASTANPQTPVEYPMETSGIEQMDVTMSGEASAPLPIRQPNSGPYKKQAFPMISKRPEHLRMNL
T5 sequence (P36888 27-993): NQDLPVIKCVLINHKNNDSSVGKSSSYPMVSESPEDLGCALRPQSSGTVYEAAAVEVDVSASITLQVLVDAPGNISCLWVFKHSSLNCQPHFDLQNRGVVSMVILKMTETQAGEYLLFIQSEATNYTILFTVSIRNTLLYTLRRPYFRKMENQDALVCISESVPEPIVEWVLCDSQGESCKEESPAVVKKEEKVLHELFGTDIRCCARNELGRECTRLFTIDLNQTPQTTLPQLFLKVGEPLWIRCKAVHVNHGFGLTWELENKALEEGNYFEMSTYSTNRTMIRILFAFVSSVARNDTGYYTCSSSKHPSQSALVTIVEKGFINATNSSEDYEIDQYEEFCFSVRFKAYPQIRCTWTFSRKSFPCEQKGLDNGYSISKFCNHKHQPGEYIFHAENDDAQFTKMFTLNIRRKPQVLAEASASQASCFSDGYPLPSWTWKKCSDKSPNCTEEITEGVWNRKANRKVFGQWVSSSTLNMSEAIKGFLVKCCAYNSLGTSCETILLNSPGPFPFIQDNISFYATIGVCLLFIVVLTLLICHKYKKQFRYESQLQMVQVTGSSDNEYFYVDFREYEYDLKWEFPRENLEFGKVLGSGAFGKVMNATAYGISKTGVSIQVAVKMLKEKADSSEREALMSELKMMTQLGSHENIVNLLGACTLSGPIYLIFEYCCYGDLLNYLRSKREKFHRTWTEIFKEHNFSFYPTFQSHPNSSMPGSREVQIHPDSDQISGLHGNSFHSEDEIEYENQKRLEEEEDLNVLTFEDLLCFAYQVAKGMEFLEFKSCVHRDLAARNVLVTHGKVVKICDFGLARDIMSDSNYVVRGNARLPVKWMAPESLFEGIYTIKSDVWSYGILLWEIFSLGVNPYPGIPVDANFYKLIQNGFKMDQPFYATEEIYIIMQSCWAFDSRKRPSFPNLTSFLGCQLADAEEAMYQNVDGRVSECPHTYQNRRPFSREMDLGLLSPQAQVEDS
T2 sequence (P35968 20-1356): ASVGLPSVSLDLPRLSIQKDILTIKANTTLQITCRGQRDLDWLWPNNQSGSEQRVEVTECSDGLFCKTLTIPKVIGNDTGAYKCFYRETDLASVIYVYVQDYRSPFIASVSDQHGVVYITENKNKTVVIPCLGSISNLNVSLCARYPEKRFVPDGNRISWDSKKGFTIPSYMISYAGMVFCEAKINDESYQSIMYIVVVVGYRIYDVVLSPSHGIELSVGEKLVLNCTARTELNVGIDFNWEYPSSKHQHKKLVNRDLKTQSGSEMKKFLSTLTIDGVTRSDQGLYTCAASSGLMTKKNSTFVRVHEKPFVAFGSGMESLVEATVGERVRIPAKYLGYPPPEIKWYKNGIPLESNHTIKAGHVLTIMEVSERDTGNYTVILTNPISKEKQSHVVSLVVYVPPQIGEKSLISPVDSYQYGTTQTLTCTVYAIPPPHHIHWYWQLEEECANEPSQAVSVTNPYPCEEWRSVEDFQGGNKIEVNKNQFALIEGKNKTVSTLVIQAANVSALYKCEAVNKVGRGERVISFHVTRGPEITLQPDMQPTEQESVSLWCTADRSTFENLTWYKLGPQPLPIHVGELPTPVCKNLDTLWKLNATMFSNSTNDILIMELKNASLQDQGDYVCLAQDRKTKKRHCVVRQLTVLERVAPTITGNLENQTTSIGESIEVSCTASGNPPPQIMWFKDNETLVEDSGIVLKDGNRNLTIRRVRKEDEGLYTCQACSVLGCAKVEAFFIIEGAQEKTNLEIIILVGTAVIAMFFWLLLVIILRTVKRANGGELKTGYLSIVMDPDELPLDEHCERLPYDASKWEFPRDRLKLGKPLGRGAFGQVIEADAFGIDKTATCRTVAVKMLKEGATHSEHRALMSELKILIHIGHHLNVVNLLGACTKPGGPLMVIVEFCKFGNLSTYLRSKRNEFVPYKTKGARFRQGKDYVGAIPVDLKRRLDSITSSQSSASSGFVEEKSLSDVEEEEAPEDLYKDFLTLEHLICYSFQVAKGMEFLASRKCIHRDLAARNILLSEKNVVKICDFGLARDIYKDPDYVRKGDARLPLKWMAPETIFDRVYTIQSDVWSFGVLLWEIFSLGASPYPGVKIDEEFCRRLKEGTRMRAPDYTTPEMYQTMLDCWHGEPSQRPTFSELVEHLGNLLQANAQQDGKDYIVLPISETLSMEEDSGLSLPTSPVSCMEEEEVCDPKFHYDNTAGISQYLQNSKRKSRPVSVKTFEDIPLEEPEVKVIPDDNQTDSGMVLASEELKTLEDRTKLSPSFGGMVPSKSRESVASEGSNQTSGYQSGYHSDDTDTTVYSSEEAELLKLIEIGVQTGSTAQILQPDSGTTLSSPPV
T4 sequence (P49841 whole entry): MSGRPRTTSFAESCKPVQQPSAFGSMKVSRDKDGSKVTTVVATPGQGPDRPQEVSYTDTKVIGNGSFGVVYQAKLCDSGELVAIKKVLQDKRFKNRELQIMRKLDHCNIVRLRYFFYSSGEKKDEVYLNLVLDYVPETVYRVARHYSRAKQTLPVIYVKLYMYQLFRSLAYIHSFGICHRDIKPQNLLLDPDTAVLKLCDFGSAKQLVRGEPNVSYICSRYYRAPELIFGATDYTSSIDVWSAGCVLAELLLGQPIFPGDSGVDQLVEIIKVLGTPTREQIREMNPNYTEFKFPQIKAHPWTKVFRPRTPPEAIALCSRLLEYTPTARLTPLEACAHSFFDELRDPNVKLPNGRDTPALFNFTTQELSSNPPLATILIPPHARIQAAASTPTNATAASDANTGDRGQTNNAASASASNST
T3 sequence (O60674 whole entry): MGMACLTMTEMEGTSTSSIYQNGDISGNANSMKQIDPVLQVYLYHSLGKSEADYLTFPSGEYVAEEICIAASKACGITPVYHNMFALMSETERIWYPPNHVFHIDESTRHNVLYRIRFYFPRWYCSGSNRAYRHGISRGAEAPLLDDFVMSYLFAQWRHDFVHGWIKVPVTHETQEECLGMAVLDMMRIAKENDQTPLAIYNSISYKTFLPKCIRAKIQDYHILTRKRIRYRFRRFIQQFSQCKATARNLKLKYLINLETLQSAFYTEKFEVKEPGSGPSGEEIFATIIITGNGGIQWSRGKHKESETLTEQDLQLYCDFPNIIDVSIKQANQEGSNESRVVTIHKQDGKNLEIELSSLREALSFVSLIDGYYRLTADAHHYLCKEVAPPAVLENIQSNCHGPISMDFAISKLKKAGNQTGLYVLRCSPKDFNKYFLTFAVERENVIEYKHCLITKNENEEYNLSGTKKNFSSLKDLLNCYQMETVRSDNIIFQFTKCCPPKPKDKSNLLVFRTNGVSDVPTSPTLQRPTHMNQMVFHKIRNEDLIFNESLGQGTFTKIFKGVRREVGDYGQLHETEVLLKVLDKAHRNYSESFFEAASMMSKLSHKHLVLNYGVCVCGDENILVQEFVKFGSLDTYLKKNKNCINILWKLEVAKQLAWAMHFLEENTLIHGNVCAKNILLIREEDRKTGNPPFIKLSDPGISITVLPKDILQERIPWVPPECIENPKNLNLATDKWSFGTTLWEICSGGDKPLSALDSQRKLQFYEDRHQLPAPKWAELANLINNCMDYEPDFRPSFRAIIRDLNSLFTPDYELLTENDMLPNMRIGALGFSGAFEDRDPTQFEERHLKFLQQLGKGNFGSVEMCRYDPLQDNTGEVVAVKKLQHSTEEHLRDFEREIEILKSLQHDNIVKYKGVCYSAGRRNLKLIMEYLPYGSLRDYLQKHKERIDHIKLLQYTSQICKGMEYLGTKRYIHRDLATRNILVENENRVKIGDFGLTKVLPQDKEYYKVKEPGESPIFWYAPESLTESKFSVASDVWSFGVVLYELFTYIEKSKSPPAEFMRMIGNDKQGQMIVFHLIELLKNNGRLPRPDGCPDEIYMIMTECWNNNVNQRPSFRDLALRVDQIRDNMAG

| SMILES | IC50 [1, 4] | EC50 [2, 5] | EC50 (INS-1E cells; [6]) | EC50 (NCI-H716 cells; [7]) | EC50 (HeLa cells; Homo sapiens, HeLa) | IC50 (DLD-1; [8]) | IC50 (SW480; [9]) | IC50 (HCT116; [10]) | IC50 [3, 11] | IC50 (Colo320; [12]) | IC50 (HT-29; [13]) | IC50 (RKO; [14]) | IC50 (SNU-C1; [15]) | IC50 (hp70S6K1 (RPS6KB1); kinase assay) | IC50 (hKDR; kinase assay) | IC50 (hJAK2; kinase assay) | IC50 (hGSK3b; kinase assay) | IC50 (hFLT3; kinase assay) | IC50 (hp70S6K1 (RPS6KB1)) | IC50 (hKDR) | also measured |
| --- | --- | --- | --- | --- | --- | --- | --- | --- | --- | --- | --- | --- | --- | --- | --- | --- | --- | --- | --- | --- | --- |
| O=C1c2c(O)ccc(O)c2C(=O)c2c(NCCNCCO)ccc(NCCNCCO)c21 [mitoxantrone] | 0.0044 µM | 0.0303 µM | > 10 µM | > 10 µM | > 10 µM | 1.6 µM | 1.83 µM | 1.23 µM | 0.001 µM | 7.41 µM | 7.59 µM | 1.03 µM | 1.72 µM | > 20 µM | > 20 µM | > 20 µM | > 20 µM | > 20 µM | – | – | – |
| COc1cccc2c1C(=O)c1c(O)c3c(c(O)c1C2=O)C[C@@](O)(C(C)=O)C[C@@H]3O[C@H]1C[C@H](N)[C@H](O)[C@H](C)O1 [Daunorubicin] | – | – | – | – | – | – | – | – | – | 9.25 µM | – | – | – | – | – | – | – | – | > 20 µM | > 20 µM | IC50 ([1]; Homo sapiens, IC50 / EC50; endothelial tube area, ADSC/ECFC co-culture; read-out: Anti-Angiogenesis): > 10 µM; EC50 ([2]; Mus musculus, C2C12, IC50 / EC50; C2C12 beta-catenin translocation; read-out: Wnt Pathway): 0.0061 µM; EC50 (INS-1E cells; Rattus norvegicus; IC50 / EC50; INS-1E; read-out: Insulin Secretion): > 10 µM; EC50 (NCI-H716 cells; Homo sapiens; IC50 / EC50; NCI-H716; read-out: GLP 1 Secretion): > 10 µM; EC50 (HeLa cells; Homo sapiens, HeLa, IC50 / EC50, HeLa): 0.0465 µM; IC50 (DLD-1; Homo sapiens, DLD-1, basal, read-out: Basal_Viability ATP DLD-1): 0.188 µM; IC50 (SW480; Homo sapiens, SW480, basal, read-out: Basal_Viability ATP SW480): 1.47 µM; IC50 (HCT116; Homo sapiens, HCT-116, basal, read-out: Basal_Viability ATP HCT116): 0.0509 µM; IC50 ([3]; Homo sapiens, HCT-116, GSK3b inhibitor pretreated, read-out: GSK3b inh pretreated_Viability ATP HCT116): 0.0554 µM; IC50 (HT-29; Homo sapiens, HT-29; read-out: Basal_Viability ATP HT-29): 0.648 µM; IC50 (RKO; Homo sapiens, RKO; read-out: Basal_Viability ATP RKO): 0.118 µM; IC50 (SNU-C1; Homo sapiens, SNU-C1, basal, read-out: Basal_Viability ATP SNU-C1): 0.338 µM; IC50 (hJAK2): > 20 µM; IC50 (hGSK3b): > 20 µM; IC50 (hFLT3): > 20 µM |
| Cc1cc(C2CCCCC2)n(O)c(=O)c1 [ciclopirox] | > 10 µM | 1.05 µM | > 10 µM | > 10 µM | > 10 µM | 0.316 µM | 0.469 µM | 0.656 µM | 0.39 µM | 0.208 µM | 7.04 µM | 0.233 µM | > 20 µM | > 20 µM | > 20 µM | > 20 µM | > 20 µM | > 20 µM | – | – | – |
| O=C(CCl)c1ccc(Cl)cc1Cl [2,2',4'-Trichloroacetophenone] | – | – | – | – | – | – | – | – | – | – | – | – | – | – | – | – | – | – | > 20 µM | > 20 µM | IC50 ([1]; IC50 / EC50; endothelial tube area, ADSC/ECFC co-culture; read-out: Anti-Angiogenesis): 2.49 µM; EC50 ([2]; IC50 / EC50; C2C12 beta-catenin translocation; read-out: Wnt Pathway): 0.373 µM; EC50 (INS-1E cells; IC50 / EC50; INS-1E; read-out: Insulin Secretion): > 10 µM; EC50 (NCI-H716 cells; IC50 / EC50; NCI-H716; read-out: GLP 1 Secretion): > 10 µM; EC50 (HeLa cells; IC50 / EC50, HeLa): > 10 µM; IC50 (DLD-1; basal, read-out: Basal_Viability ATP DLD-1): 2.07 µM; IC50 (SW480; basal, read-out: Basal_Viability ATP SW480): 1.25 µM; IC50 (HCT116; basal, read-out: Basal_Viability ATP HCT116): 6.3 µM; IC50 ([3]; GSK3b inhibitor pretreated, read-out: GSK3b inh pretreated_Viability ATP HCT116): 1.1 µM; IC50 (Colo320; basal, read-out: Basal_Viability ATP Colo 320): 0.53 µM; IC50 (HT-29; basal; read-out: Basal_Viability ATP HT-29): 8.52 µM; IC50 (RKO; basal; read-out: Basal_Viability ATP RKO): 4.3 µM; IC50 (SNU-C1; basal, read-out: Basal_Viability ATP SNU-C1): 2.98 µM; IC50 (hJAK2): > 20 µM; IC50 (hGSK3b): > 20 µM; IC50 (hFLT3): > 20 µM |
| CC(=O)Oc1ccc(C2(c3ccc(OC(C)=O)cc3)Oc3ccccc3NC2=O)cc1 [Bisoxatin diacetate] | – | – | – | – | – | – | – | – | – | – | – | – | – | – | – | – | – | – | > 20 µM | > 20 µM | IC50 ([1]; read-out: Anti-Angiogenesis): 2.27 µM; EC50 ([2]; read-out: Wnt Pathway): 14 µM; EC50 (INS-1E cells; read-out: Insulin Secretion): > 20 µM; EC50 (NCI-H716 cells; read-out: GLP 1 Secretion): > 10 µM; EC50 (HeLa cells): > 10 µM; IC50 (DLD-1; read-out: Basal_Viability ATP DLD-1): 19.7 µM; IC50 (SW480; read-out: Basal_Viability ATP SW480): 9.19 µM; IC50 (HCT116; read-out: Basal_Viability ATP HCT116): 2.42 µM; IC50 ([3]; read-out: GSK3b inh pretreated_Viability ATP HCT116): 3.26 µM; IC50 (Colo320; read-out: Basal_Viability ATP Colo 320): > 20 µM; IC50 (HT-29; read-out: Basal_Viability ATP HT-29): > 20 µM; IC50 (RKO; read-out: Basal_Viability ATP RKO): 9.23 µM; IC50 (SNU-C1; read-out: Basal_Viability ATP SNU-C1): > 20 µM; IC50 (hJAK2): > 20 µM; IC50 (hGSK3b): > 20 µM; IC50 (hFLT3): > 20 µM |
| COC(=O)Nc1nc2ccc(Sc3ccccc3)cc2[nH]1 [Fenbendazole] | – | – | – | – | – | – | – | – | – | – | – | – | – | > 20 µM | > 20 µM | > 20 µM | > 20 µM | > 20 µM | – | – | IC50 ([1]; Homo sapiens; read-out: Anti-Angiogenesis): 0.207 µM; EC50 ([2]; Mus musculus, C2C12; read-out: Wnt Pathway): 0.438 µM; EC50 (INS-1E cells; Rattus norvegicus, INS-1E; read-out: Insulin Secretion): > 10 µM; EC50 (NCI-H716 cells; Homo sapiens, NCI-H716; read-out: GLP 1 Secretion): > 20 µM; EC50 (HeLa cells; Homo sapiens, HeLa, S2 Table, HeLa, 20 = no response at highest concentration): 0.195 µM; IC50 (DLD-1; Homo sapiens, DLD-1, basal, DLD-1, read-out: Basal_Viability ATP DLD-1): 0.0673 µM; IC50 (SW480; Homo sapiens, SW480, basal, SW480, read-out: Basal_Viability ATP SW480): > 20 µM; IC50 (HCT116; Homo sapiens, HCT-116, basal, HCT116, read-out: Basal_Viability ATP HCT116): 0.001 µM; IC50 ([3]; Homo sapiens, HCT-116, HCT116 pretreated with GSK3b inhibitor, read-out: GSK3b inh pretreated_Viability ATP HCT116): 0.003 µM; IC50 (Colo320; Homo sapiens, basal, Colo 320, read-out: Basal_Viability ATP Colo 320): > 20 µM; IC50 (HT-29; Homo sapiens; basal; HT-29; read-out: Basal_Viability ATP HT-29): > 20 µM; IC50 (RKO; Homo sapiens; basal; RKO; read-out: Basal_Viability ATP RKO): 0.001 µM; IC50 (SNU-C1; Homo sapiens, SNU-C1, basal, SNU-C1, read-out: Basal_Viability ATP SNU-C1): > 20 µM |
| Nc1nc2nc[nH]c2c(=S)[nH]1 [Tioguanine] | 0.622 µM | > 10 µM | > 10 µM | > 10 µM | > 10 µM | 0.108 µM | 0.402 µM | 0.139 µM | 0.163 µM | 0.373 µM | 0.0493 µM | 0.343 µM | 4.4 µM | > 20 µM | > 20 µM | > 20 µM | > 20 µM | > 20 µM | – | – | – |

From article PMC4503722, “Novel Phenotypic Outcomes Identified for a Public Collection of Approved Drugs from a Publicly Accessible Panel of Assays” (PLoS ONE, 2015)
